From US6620828B2, “Thiazole compounds and pharmaceutical compositions for inhibiting protein kinases and methods for their use” (Agouron Pharmaceuticals, Inc., priority 1999, dated 2003)

These compounds were tested against T1, phosphorylated VEGF-R2Δ50 (FLVK-P) (Homo sapiens, UniProt P35968, DEL940-989/E990V) (assay: VEGF-R2 coupled spectrophotometric (FLVK-P) assay). Details: read-out: VEGF % inhibition at 20 μM, 20 μM; combinatorial library compounds.
T1 construct: VEGF-R2Δ50 contains residues 806-939 and 990-1171; made in house; host or cells: baculovirus/insect cells
Assay type: biochemical
How it was run: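 Baculovirus-expressed human VEGF-R2Δ50 (residues 806-939/990-1171, E990V) was autophosphorylated with 3 mM ATP, 40 mM MgCl2 for 2 h at 4° C. ADP formation was coupled via PK/LDH to NADH oxidation, read at 340 nm, with 5.1 mM poly(E4Y1), 1 mM ATP, 25 mM MgCl2, Hepes pH 7.5. Ki came from activity across compound concentrations.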

T1 sequence (P35968 with tags, fused parts or gaps DEL940-989/E990V limits assumed): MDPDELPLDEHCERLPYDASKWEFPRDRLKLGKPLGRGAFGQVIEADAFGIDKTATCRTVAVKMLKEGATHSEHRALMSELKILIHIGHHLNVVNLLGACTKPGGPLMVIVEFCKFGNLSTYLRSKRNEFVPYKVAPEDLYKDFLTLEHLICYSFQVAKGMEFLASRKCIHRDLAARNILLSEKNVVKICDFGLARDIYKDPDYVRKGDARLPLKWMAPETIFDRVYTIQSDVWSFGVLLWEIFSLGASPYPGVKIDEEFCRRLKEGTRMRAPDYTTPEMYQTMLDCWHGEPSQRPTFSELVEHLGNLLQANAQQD

SMILES | inhibition at 20 µM [%]
Cc1c(-c2csc(-c3sc(Nc4ccc(S(N)(=O)=O)cc4)nc3N)n2)sc2ccc(Cl)cc12 [drawing 424] | 23
Cc1ccc(-c2csc(-c3sc(Nc4ccc(N(C)C)cc4)nc3N)n2)c(C)c1 | 21
CCCCCc1ccc(-c2csc(-c3sc(Nc4ccc(C(C)C)cc4)nc3N)n2)cc1 | -14
CN(C)c1ccc(Nc2nc(N)c(-c3nc(-c4ccc(Cl)cc4Cl)cs3)s2)cc1 | 19
Nc1nc(Nc2ccc(S(N)(=O)=O)cc2)sc1-c1nc(-c2ccccc2[N+](=O)[O-])cs1 | 47
CN(C)c1ccc(Nc2nc(N)c(-c3nc(-c4ccc([N+](=O)[O-])cc4)cs3)s2)cc1 | 8
Nc1nc(Nc2ccc(S(N)(=O)=O)cc2)sc1-c1nc(-c2csc3ccccc23)cs1 | 10
CN(C)c1ccc(Nc2nc(N)c(-c3nc(-c4ccc(Cl)c(Cl)c4)cs3)s2)cc1 | 0
CN(C)c1ccc(Nc2nc(N)c(-c3nc(-c4ccccc4)cs3)s2)cc1 [drawing 547] | 17
Cc1c(F)cc(-c2csc(-c3sc(Nc4ccc(C(C)C)cc4)nc3N)n2)cc1Cl | 18
Cc1c(-c2csc(-c3sc(Nc4ccc(N(C)C)cc4)nc3N)n2)sc2ccc(Cl)cc12 [drawing 550] | 31
Nc1nc(Nc2ccc(S(N)(=O)=O)cc2)sc1-c1nc(-c2ccc([N+](=O)[O-])cc2)cs1 | 3
CN(C)c1ccc(Nc2nc(N)c(-c3nc(-c4cccc([N+](=O)[O-])c4)cs3)s2)cc1 | 6
CC(C)c1ccc(Nc2nc(N)c(-c3nc(-c4ccc(Cl)c(Cl)c4)cs3)s2)cc1 | -4
Nc1nc(Nc2ccc(S(N)(=O)=O)cc2)sc1-c1nc(-c2c(Cl)cc(C(F)(F)F)cc2Cl)cs1 | 9
Nc1nc(Nc2ccc(S(N)(=O)=O)cc2)sc1-c1nc(-c2ccc(Cl)cc2)cs1 | 27
CN(C)c1ccc(Nc2nc(N)c(-c3nc(-c4ccc[nH]4)cs3)s2)cc1 | 28
COc1cccc(-c2csc(-c3sc(Nc4ccc(S(N)(=O)=O)cc4)nc3N)n2)c1 | 23

These compounds were tested against T2, FL-CHK1 (Homo sapiens, UniProt O14757) (assay: CHK1 assay). Details: 20 μM; combinatorial library compounds.
T2 construct: C-terminally His-tagged full-length human CHK1 (FL-CHK1); 6xHis (C); made in house; host or cells: baculovirus/insect cells
T2 sequence (O14757 1-476): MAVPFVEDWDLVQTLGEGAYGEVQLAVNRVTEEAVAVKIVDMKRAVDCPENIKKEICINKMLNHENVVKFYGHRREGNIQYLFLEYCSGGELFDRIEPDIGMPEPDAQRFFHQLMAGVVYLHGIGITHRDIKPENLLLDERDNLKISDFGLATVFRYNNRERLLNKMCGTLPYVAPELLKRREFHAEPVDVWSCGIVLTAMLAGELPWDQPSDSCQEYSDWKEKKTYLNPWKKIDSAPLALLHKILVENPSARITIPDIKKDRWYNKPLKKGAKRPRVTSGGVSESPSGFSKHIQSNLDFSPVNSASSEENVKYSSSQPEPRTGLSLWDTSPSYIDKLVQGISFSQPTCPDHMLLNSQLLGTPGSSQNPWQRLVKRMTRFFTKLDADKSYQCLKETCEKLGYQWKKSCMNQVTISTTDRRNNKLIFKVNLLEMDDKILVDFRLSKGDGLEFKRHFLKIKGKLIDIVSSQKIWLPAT
Assay type: biochemical
How it was run: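 Full-length human CHK1 with C-terminal 6×His tag, made in baculovirus/insect cells, 10 nM, phosphorylating 0.125 mM Syntide-2 with 0.15 mM ATP in 50 mM Tris pH 7.5, 25 mM MgCl2, 400 mM NaCl. PK/LDH-coupled NADH oxidation read at 340 nm. Ki from initial rates over varied compound concentrations.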

SMILES | CHK1 % Inhibition at 20 μM [%] | inhibition at 20 µM [%]
Cc1c(-c2csc(-c3sc(Nc4ccc(S(N)(=O)=O)cc4)nc3N)n2)sc2ccc(Cl)cc12 [drawing 424] | 28.4 | 
Cc1ccc(-c2csc(-c3sc(Nc4ccc(N(C)C)cc4)nc3N)n2)c(C)c1 |  | -0.9
CCCCCc1ccc(-c2csc(-c3sc(Nc4ccc(C(C)C)cc4)nc3N)n2)cc1 |  | 0.7
CN(C)c1ccc(Nc2nc(N)c(-c3nc(-c4ccc(Cl)cc4Cl)cs3)s2)cc1 |  | 26.9
Nc1nc(Nc2ccc(S(N)(=O)=O)cc2)sc1-c1nc(-c2ccccc2[N+](=O)[O-])cs1 |  | 25.6
CN(C)c1ccc(Nc2nc(N)c(-c3nc(-c4ccc([N+](=O)[O-])cc4)cs3)s2)cc1 |  | 17.8
Nc1nc(Nc2ccc(S(N)(=O)=O)cc2)sc1-c1nc(-c2csc3ccccc23)cs1 |  | 0.4
CN(C)c1ccc(Nc2nc(N)c(-c3nc(-c4ccc(Cl)c(Cl)c4)cs3)s2)cc1 |  | 5.1
CN(C)c1ccc(Nc2nc(N)c(-c3nc(-c4ccccc4)cs3)s2)cc1 [drawing 547] |  | 13.1
Cc1c(F)cc(-c2csc(-c3sc(Nc4ccc(C(C)C)cc4)nc3N)n2)cc1Cl |  | 22.8
Cc1c(-c2csc(-c3sc(Nc4ccc(N(C)C)cc4)nc3N)n2)sc2ccc(Cl)cc12 [drawing 550] |  | 41.9
Nc1nc(Nc2ccc(S(N)(=O)=O)cc2)sc1-c1nc(-c2ccc([N+](=O)[O-])cc2)cs1 |  | 11
CN(C)c1ccc(Nc2nc(N)c(-c3nc(-c4cccc([N+](=O)[O-])c4)cs3)s2)cc1 |  | 13.8
CC(C)c1ccc(Nc2nc(N)c(-c3nc(-c4ccc(Cl)c(Cl)c4)cs3)s2)cc1 |  | 0.3
Nc1nc(Nc2ccc(S(N)(=O)=O)cc2)sc1-c1nc(-c2c(Cl)cc(C(F)(F)F)cc2Cl)cs1 |  | 21.7
Nc1nc(Nc2ccc(S(N)(=O)=O)cc2)sc1-c1nc(-c2ccc(Cl)cc2)cs1 |  | 4.4
CN(C)c1ccc(Nc2nc(N)c(-c3nc(-c4ccc[nH]4)cs3)s2)cc1 |  | 32.5
COc1cccc(-c2csc(-c3sc(Nc4ccc(S(N)(=O)=O)cc4)nc3N)n2)c1 |  | 15.2

These compounds were tested against CDK2/Cyclin A complex (Homo sapiens, UniProt P24941) (assay: CDK2/Cyclin A assay). Details: 1.0 μM; combinatorial library compounds.
Assay type: biochemical
How it was run: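 Radiometric assay: 150 nM CDK2/cyclin A (insect-cell CDK2, truncated cyclin A) phosphorylates His-tagged Rb fragment (residues 386-928) with 25 μM ATP plus [32P]ATP, pH 7.4 HEPES, 2% DMSO, 30 °C for 20 min. Filter-captured product counted by phosphorimager; apparent Ki from competitive or tight-binding inhibition fits.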

SMILES | inhibition at 1 µM [%] | CDK2 % Inhibition at 1.0 μM [%]
Cc1c(-c2csc(-c3sc(Nc4ccc(S(N)(=O)=O)cc4)nc3N)n2)sc2ccc(Cl)cc12 [drawing 424] | 67 | 
Cc1ccc(-c2csc(-c3sc(Nc4ccc(N(C)C)cc4)nc3N)n2)c(C)c1 | 16.1 | 
CCCCCc1ccc(-c2csc(-c3sc(Nc4ccc(C(C)C)cc4)nc3N)n2)cc1 | 3.6 | 
CN(C)c1ccc(Nc2nc(N)c(-c3nc(-c4ccc(Cl)cc4Cl)cs3)s2)cc1 | 17.3 | 
Nc1nc(Nc2ccc(S(N)(=O)=O)cc2)sc1-c1nc(-c2ccccc2[N+](=O)[O-])cs1 | 55.4 | 
CN(C)c1ccc(Nc2nc(N)c(-c3nc(-c4ccc([N+](=O)[O-])cc4)cs3)s2)cc1 | 22.1 | 
Nc1nc(Nc2ccc(S(N)(=O)=O)cc2)sc1-c1nc(-c2csc3ccccc23)cs1 | 48.9 | 
CN(C)c1ccc(Nc2nc(N)c(-c3nc(-c4ccc(Cl)c(Cl)c4)cs3)s2)cc1 | 9.2 | 
CN(C)c1ccc(Nc2nc(N)c(-c3nc(-c4ccccc4)cs3)s2)cc1 [drawing 547] | 17.2 | 
Cc1c(F)cc(-c2csc(-c3sc(Nc4ccc(C(C)C)cc4)nc3N)n2)cc1Cl | 28.2 | 
Cc1c(-c2csc(-c3sc(Nc4ccc(N(C)C)cc4)nc3N)n2)sc2ccc(Cl)cc12 [drawing 550] |  | 17.1
Nc1nc(Nc2ccc(S(N)(=O)=O)cc2)sc1-c1nc(-c2ccc([N+](=O)[O-])cc2)cs1 | 27.7 | 
CN(C)c1ccc(Nc2nc(N)c(-c3nc(-c4cccc([N+](=O)[O-])c4)cs3)s2)cc1 | 17.1 | 
CC(C)c1ccc(Nc2nc(N)c(-c3nc(-c4ccc(Cl)c(Cl)c4)cs3)s2)cc1 | 10.4 | 
Nc1nc(Nc2ccc(S(N)(=O)=O)cc2)sc1-c1nc(-c2c(Cl)cc(C(F)(F)F)cc2Cl)cs1 | 53.9 | 
Nc1nc(Nc2ccc(S(N)(=O)=O)cc2)sc1-c1nc(-c2ccc(Cl)cc2)cs1 | 18.5 | 
CN(C)c1ccc(Nc2nc(N)c(-c3nc(-c4ccc[nH]4)cs3)s2)cc1 | 31.7 | 
COc1cccc(-c2csc(-c3sc(Nc4ccc(S(N)(=O)=O)cc4)nc3N)n2)c1 | 5.9 | 

What follows are compounds tested against T3, CDK4/Cyclin D3 complex (Homo sapiens, UniProt P11802) (assay: CDK4/Cyclin D assay). Details: 1.0 μM; combinatorial library compounds.
T3 construct: made in house; host or cells: insect cells co-infected with baculovirus vectors
Assay type: biochemical
How it was run: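 Insect-cell-expressed CDK4/cyclin D3 (50 nM) phosphorylating His-tagged Rb fragment (residues 386-928) with 25 μM [^32P]ATP in HEPES pH 7.4, MgCl2, 2% DMSO; 20 min at 30 °C, EDTA stop. Filter-captured 32P by phosphorimager; apparent Ki from competitive or tight-binding inhibition fits.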

T3 sequence (P11802 whole entry): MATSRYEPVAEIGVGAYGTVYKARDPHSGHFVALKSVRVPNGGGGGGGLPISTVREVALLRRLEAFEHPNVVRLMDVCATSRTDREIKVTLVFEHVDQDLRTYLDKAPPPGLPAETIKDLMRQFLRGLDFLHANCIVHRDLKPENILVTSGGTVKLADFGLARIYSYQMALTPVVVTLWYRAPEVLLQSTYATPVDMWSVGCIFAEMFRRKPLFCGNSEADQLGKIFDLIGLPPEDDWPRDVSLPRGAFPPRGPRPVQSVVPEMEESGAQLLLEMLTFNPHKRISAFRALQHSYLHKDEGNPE
T3 sequence (P30281 whole entry partner): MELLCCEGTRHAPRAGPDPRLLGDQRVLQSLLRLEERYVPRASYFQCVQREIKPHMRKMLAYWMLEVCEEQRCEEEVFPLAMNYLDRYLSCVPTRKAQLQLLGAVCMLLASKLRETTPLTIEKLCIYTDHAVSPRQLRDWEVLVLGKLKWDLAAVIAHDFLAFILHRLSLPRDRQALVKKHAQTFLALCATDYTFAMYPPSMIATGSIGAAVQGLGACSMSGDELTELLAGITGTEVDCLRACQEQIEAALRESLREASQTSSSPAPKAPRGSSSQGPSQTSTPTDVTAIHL

SMILES | inhibition at 1 µM [%] | CDK4 % Inhibition at 1.0 μM [%]
Cc1c(-c2csc(-c3sc(Nc4ccc(S(N)(=O)=O)cc4)nc3N)n2)sc2ccc(Cl)cc12 [drawing 424] | 59.9 | 
Cc1ccc(-c2csc(-c3sc(Nc4ccc(N(C)C)cc4)nc3N)n2)c(C)c1 | 23.3 | 
CCCCCc1ccc(-c2csc(-c3sc(Nc4ccc(C(C)C)cc4)nc3N)n2)cc1 | 10.3 | 
CN(C)c1ccc(Nc2nc(N)c(-c3nc(-c4ccc(Cl)cc4Cl)cs3)s2)cc1 | 76.1 | 
Nc1nc(Nc2ccc(S(N)(=O)=O)cc2)sc1-c1nc(-c2ccccc2[N+](=O)[O-])cs1 | 57.8 | 
CN(C)c1ccc(Nc2nc(N)c(-c3nc(-c4ccc([N+](=O)[O-])cc4)cs3)s2)cc1 | 50.4 | 
Nc1nc(Nc2ccc(S(N)(=O)=O)cc2)sc1-c1nc(-c2csc3ccccc23)cs1 | 44.1 | 
CN(C)c1ccc(Nc2nc(N)c(-c3nc(-c4ccc(Cl)c(Cl)c4)cs3)s2)cc1 | -6.5 | 
CN(C)c1ccc(Nc2nc(N)c(-c3nc(-c4ccccc4)cs3)s2)cc1 [drawing 547] |  | −48.3
Cc1c(F)cc(-c2csc(-c3sc(Nc4ccc(C(C)C)cc4)nc3N)n2)cc1Cl | 88.6 | 
Cc1c(-c2csc(-c3sc(Nc4ccc(N(C)C)cc4)nc3N)n2)sc2ccc(Cl)cc12 [drawing 550] | 64.3 | 
Nc1nc(Nc2ccc(S(N)(=O)=O)cc2)sc1-c1nc(-c2ccc([N+](=O)[O-])cc2)cs1 | -16.3 | 
CN(C)c1ccc(Nc2nc(N)c(-c3nc(-c4cccc([N+](=O)[O-])c4)cs3)s2)cc1 | 27 | 
CC(C)c1ccc(Nc2nc(N)c(-c3nc(-c4ccc(Cl)c(Cl)c4)cs3)s2)cc1 | -7.9 | 
Nc1nc(Nc2ccc(S(N)(=O)=O)cc2)sc1-c1nc(-c2c(Cl)cc(C(F)(F)F)cc2Cl)cs1 | 58 | 
Nc1nc(Nc2ccc(S(N)(=O)=O)cc2)sc1-c1nc(-c2ccc(Cl)cc2)cs1 | 10.9 | 
CN(C)c1ccc(Nc2nc(N)c(-c3nc(-c4ccc[nH]4)cs3)s2)cc1 | 63.6 | 
COc1cccc(-c2csc(-c3sc(Nc4ccc(S(N)(=O)=O)cc4)nc3N)n2)c1 | -4.2 | 
